Measurements published in patent publication EP0545103A1, “Insecticidal, acaricidal and molluscicidal 1-(substituted) thioalkylpyrroles” (priority 1991, dated 1993).

Tests used:
Assay type in all cases: in vivo
Set-up in all cases: key: 0: no effect; 10-25% kill; 26-35% kill; 36-45% kill; 46-55% kill; 56-65% kill; 66-75% kill; 76-85% kill; 86-99% kill; 9: 100% kill
[1] = test system: Spodoptera eridania, 3rd instar larvae, southern armyworm; assay: Southern armyworm 7-day residual test; settings: R designates Residual: 7-day residual foliage, concentration not given; for ARMYWORM Day 3 R: rating at 3 days; for ARMYWORM Day 5 R: rating at 5 days
In short: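 Compound was dissolved in 35% aqueous acetone (10,000 ppm stock) and diluted with water before treating lima bean leaves. The leaves were aged 7 days under high-intensity greenhouse lamps (14 h day). Third-instar Spodoptera eridania larvae were then assayed on the foliage and rated on a scale.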

[2] = test system: Empoasca abrupta, adult, western potato leafhopper; assay: Western potato leafhopper systemic uptake test; settings: 100 ppm
In short: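 Cut Sieva lima bean stems stood 3 days at 27 °C in aqueous emulsion of test material (100 ppm, further 10-fold dilutions) for systemic uptake. One leaf then exposed to about 10 adult leafhoppers in a moist petri dish; mortality counted after 2 days and rated on a scale.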

[3] = test system: Heliothis virescens, egg, tobacco budworm; assay: Tobacco budworm egg test, dipped cotton leaf and eggs; settings: mortality rating after 3 days
In short: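 Compound dissolved at 10,000 ppm in 35% aqueous acetone, diluted with water. A cotton leaf and a cheesecloth square with roughly 50-100 eggs aged 6-30 h are each dipped for about 3 s, then combined and kept humid. Mortality counted after 3 days and rated on a scale.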

[4] = test system: Spodoptera eridania, 3rd instar larvae, southern armyworm; assay: Southern armyworm systemic uptake (stem systemic) test; settings: cut stem in emulsion 3 days
[5] = test system: Empoasca abrupta, adult, western potato leafhopper; assay: Western potato leafhopper contact test, dipped limabean leaf
In short: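 Sieva limabean leaf dipped 3 s in compound solution (diluted in water from 10,000 ppm stock in 35% acetone), dried, and infested with about 10 adult leafhoppers on moist filter paper. Mortality counted after 2 days and scored on a rating scale.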

[6] = test system: Diabrotic undecimpunctata howardi, 3rd instar southern corn rootworm; assay: Southern corn rootworm soil test; settings: mortality rating after 6 days
In short: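 Compound applied in acetone to talc at 1.25 and 0.25 mg active ingredient per jar (about 50 and 10 kg/ha), dried, then mixed with millet seed and moist soil. Ten 3rd instar larvae added per jar; mortality counted at 6 days, with missing larvae scored dead. Results rated on a scale.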

[7] = systemic uptake, rating scale 0-9
[8] = 10 ppm, contact, rating scale 0-9
[9] = 100 ppm, contact, rating scale 0-9
[10] = cut stem in emulsion 3 days, mortality rating after 2 days
[11] = 10 ppm, mortality rating after 2 days
[12] = 100 ppm, mortality rating after 2 days

Compound | ARMYWORM Day 3 R [1] | ARMYWORM Day 5 R [1] | LEAFHOPPER Systemic [2, 7] | TOBACCO BUDWORM Egg ([3]; 1000 ppm) | ARMYWORM Stem Sys [4] | LEAFHOPPER Contact [5, 8] | LEAFHOPPER Contact [5, 9] | SOUTHERN CORN ROOTWORM ([6]; 50 (ppm as headed)) | LEAFHOPPER Systemic [2, 10] | TOBACCO BUDWORM Egg ([3]; 100 ppm) | LEAFHOPPER Contact [5, 11] | LEAFHOPPER Contact [5, 12] | SOUTHERN CORN ROOTWORM ([6]; 10 (ppm as headed))
CN=C(NC)SCn1c(Cl)c(C#N)c(Cl)c1-c1ccc(Cl)c(Cl)c1 [Example 19] | 9 (100% kill) | 9 (100% kill) | 0 | 0 | 0 | 0 | 9 (100% kill) | 0 | – | – | – | – | –
N#Cc1c(Br)c(Br)n(CSC2=NCCCN2)c1Br [Example 13] | 0 | 7 (76-85% kill) | 0 | 0 | 7 (76-85% kill) | – | 0 | 0 | – | – | – | – | –
CN(C)C(=S)SCn1c(Cl)c(C#N)c(Cl)c1-c1ccc(Cl)c(Cl)c1 [Example 36] | 9 (100% kill) | 9 (100% kill) | 0 | 0 | 0 | – | 6 (66-75% kill) | 0 | – | – | – | – | –
N#Cc1c(Cl)c(C(F)(F)F)n(CSC2=NCCN2)c1-c1ccc(Cl)cc1 [Example 4] | 9 (100% kill) | 9 (100% kill) | – | 9 (100% kill) | 0 | – | – | 0 | 0 | 9 (100% kill) | 0 | 9 (100% kill) | –
N#Cc1c(Br)c(C(F)(F)F)n(CSC2=NCCS2)c1-c1ccc(Cl)cc1 [Example 16] | 9 (100% kill) | 9 (100% kill) | 0 | 0 | 4 (46-55% kill) | 9 (100% kill) | 9 (100% kill) | 9 (100% kill) | – | 0 | – | – | –
CSCn1c(Br)c(Br)c(C#N)c1-c1ccc(C(F)(F)F)cc1 [Example 44] | 0 | 2 (26-35% kill) | – | 0 | 0 | – | – | 3 (36-45% kill) | 0 | – | 0 | 7 (76-85% kill) | 0
CCOC(=S)SCn1c(-c2ccc(Cl)cc2)c(C#N)c(Br)c1C(F)(F)F [Example 29] | 9 (100% kill) | 9 (100% kill) | 0 | 4 (46-55% kill) | 0 | 9 (100% kill) | 9 (100% kill) | 9 (100% kill) | – | 0 | – | – | –
